Data published in patent US11186588B2 (AYUMI PHARMACEUTICAL CORPORATION, priority 2017, dated 2021).
Like-named read-outs stand apart in the source and are kept apart here.

How the values were obtained:
[1] = target: Recombinant BRD4 (44-168) protein (Homo sapiens (Human), UniProt O60885); assay: BRD4-H4KAc4 binding assay (amplified luminescence proximity homogeneous assay, AlphaScreen)
Protocol: In order to evaluate BRD4 inhibitory activity of the present compounds, BRD4-H4KAc4 binding assay was carried out by an amplified luminescence proximity homogeneous assay. The specific method is described below.
H4KAc4 peptide (available from Toray Research Center, Inc., sequence SGRGK(Ac)GGK(Ac)GLGK(Ac)GGAK(Ac)RHR-K(Biotin)-NH2) was dissolved in 1×Assay buffer to prepare 1 mM H4KAc4 peptide stock solution.
N-terminal His tag/C-terminal FLAG tag-fused type Recombinant BRD4 (44-168) protein (available from Active Motif, Cat No. 31380) was diluted with 1×Assay buffer to 1,250-fold to prepare 250 nM BRD4 solution.
1% DMSO solution (control) and 2 μL of each compound solution in each concentration were added to each well of AlphaPlate-384 (from PerkinElmer, Cat No. 6008350). Next, 2 μL of 250 nM BRD4 solution was added to each well of AlphaPlate-384. Further, 2 μL of 250 nM H4KAc4 peptide solution was added to each well of AlphaPlate-384. After addition of the 250 nM H4KAc4 peptide solution, the mixture was allowed to stand at room temperature under light shielding for 60 minutes, and 4 μL of AlphaScreen beads were added to each well of AlphaPlate-384. After addition of the AlphaScreen beads, the mixture was allowed to stand at room temperature under light shielding for 60 minutes, emission at 520-620 nm upon excitation at 680 nm was detected by EnVision multilabel counter (from PerkinElmer), and binding of BRD4 and H4KAc4 was detected. Incidentally, the evaluation of each compound was carried out in duplicate (2 well per 1 compound).
(§1) The BRD4 inhibition rate (%) was calculated by the following equation using Microsoft EXCEL 2010. BRD4 inhibition rate (%)=100−{(luminescence intensity average value of each compound added well)−(average value of luminescence intensity of blank well))/(average value of luminescence intensity of control well)−(average value of luminescence intensity of blank well)}×100

NF-κB = NF-κB reporter gene assay (TNF-α stimulated A549/NF-κB-luc cells); type: cell-based; conditions: Homo sapiens, TNF-α stimulation
Protocol: In order to evaluate NF-κB inhibitory activity of the present compounds, NF-κB reporter gene assay was carried out. The specific method is described below.
Gene recombinant human TNF-α (available from R&D systems, Cat No. 210-TA) was dissolved in D-PBS(−) (available from Wako Pure Chemical Industries, Ltd., Cat No. 293-72601) to prepare 100 μg/mL of TNF-α solution stock solution. 100 μg/mL of the TNF-α solution stock solution was diluted with the culture medium to prepare 10 ng/mL of TNF-α solution.
A549/NF-κB-luc cells (available from Panomics, Cat No. LR0051) were prepared at 375,000 cells/mL in the culture medium. The 375,000 cells/mL A549/NF-κB-luc cell suspension was seeded at 80 μL each on a white 96-well plate (available from Greiner, Cat No. 655073). One hour after seeding the cells, 10 μL of 2% DMSO solution (control) and each compound solution in each concentration were added to each well of the 96-well plate. One hour after the addition of each compound solution, 10 ng/mL of the TNF-α solution (10 μL) was added to each well of the 96-well plate. Three hours after the addition of 10 ng/mL of the TNF-α solution, 100 μL of Steady-Glo reagent (available from Promega, Cat No. E2510) was added to each well of the 96-well plate. After 30 to 90 minutes of the addition of the Steady-Glo reagent, the luminescence intensity of each well was detected by EnVision multilabel counter (available from PerkinElmer).
as §1, with “NF-κB” for “The BRD4”, “NF-κB” for “BRD4”, “well)}×100 In addition, IC50 values were calculated from the calculated NF-κB inhibition rate (%) using curve fitting software XLfit (available from IDBS).” for “well)}×100”

Row | inhibition at 10 µM ([1]; 10 uM) | SMILES | also measured
1 | 99.9% | Cc1sc2c(c1C)C(c1ccc(Cl)cc1)=NNc1nnc(C)n1-2 [Example 1, 4-(4-chlorophenyl)-2,3,9-trimethyl-6H-thieno[2,3-e][1,2,4]triazolo[3,4-c][1,2,4]triazepine] | 
2 | 100% | COc1ccc(CN2N=C(c3ccc(Cl)cc3)c3c(sc(C)c3C)-n3c(C)nnc32)cc1 [Example 2, 4-(4-chlorophenyl)-6-(4-methoxybenzyl)-2,3,9-trimethyl-6H-thieno[2,3-e][1,2,4]triazolo[3,4-c][1,2,4]triazepine] | 
3 | 100% | Cc1sc2c(c1C)C(c1ccc(Cl)cc1)=NN(Cc1cccnc1)c1nnc(C)n1-2 [Example 4, 4-(4-chlorophenyl)-2,3,9-trimethyl-6-(pyridin-3-ylmethyl)-6H-thieno[2,3-e][1,2,4]triazolo[3,4-c][1,2,4]triazepine] | 
4 | 22.3% | Cc1sc2c(c1C)C(c1ccc(Cl)cc1)=NN(C(=O)Nc1ccccc1)c1nnc(C)n1-2 [Example 15, 4-(4-Chlorophenyl)-2,3,9-trimethyl-N-phenyl-6H-thieno[2,3-e][1,2,4]triazolo[3,4-c][1,2,4]triazepine-6-carboxamide] | 
5 | 69.7% | Cc1sc2c(c1C)C(c1ccc(Cl)cc1)=NN(Cc1ccccc1C(F)(F)F)c1nnc(C)n1-2 [Example 17, 4-(4-chlorophenyl)-2,3,9-trimethyl-6-(2-(trifluoromethyl)benzyl)-6H-thieno[2,3-e][1,2,4]triazolo[3,4-c][1,2,4]triazepine] | 
6 | 82.2% | Cc1sc2c(c1C)C(c1ccc(Cl)cc1)=NN(CCCc1ccccc1)c1nnc(C)n1-2 [Example 20, 4-(4-chlorophenyl)-2,3,9-trimethyl-6-(3-phenylpropyl)-6H-thieno[2,3-e][1,2,4]triazolo[3,4-c][1,2,4]triazepine] | 
7 | 101% | COc1ccc(CN2N=C(c3ccccc3)c3c(sc(C)c3C)-n3c(C)nnc32)cc1 [Example 28, 6-(4-methoxybenzyl)-2,3,9-trimethyl-4-phenyl-6H-thieno[2,3-e][1,2,4]triazolo[3,4-c][1,2,4]triazepine] | 
8 | 101% | Cc1sc2c(c1C)C(c1ccccc1)=NN(Cc1cccnc1)c1nnc(C)n1-2 [Example 30, 2,3,9-trimethyl-4-phenyl-6-(pyridin-3-ylmethyl)-6H-thieno[2,3-e]-[1,2,4]triazolo[3,4-c][1,2,4]triazepine] | 
9 | 100% | Cc1sc2c(c1C)C(c1ccccc1)=NN(Cc1ccncc1)c1nnc(C)n1-2 [Example 32, 2,3,9-trimethyl-4-phenyl-6-(pyridin-4-ylmethyl)-6H-thieno[2,3-e][1,2,4]triazolo[3,4-c][1,2,4]triazepine] | 
10 | 6.6% | Cc1sc2c(c1C)C(c1ccc(Cl)cc1)=NN(C(=O)NCc1ccccc1)c1nnc(C)n1-2 [Example 35, N-benzyl-4-(4-chlorophenyl)-2,3,9-trimethyl-6H-thieno[2,3-e][1,2,4]triazolo[3,4-c][1,2,4]triazepine-6-carboxamide] | 
11 | 100% | Cc1sc2c(c1C)C(c1ccc(Cl)cc1)=NN(Cc1ccc(Cl)nc1)c1nnc(C)n1-2 [Example 37, 4-(4-chlorophenyl)-6-((6-chloropyridin-3-yl)methyl)-2,3,9-trimethyl-6H-thieno[2,3-e][1,2,4]triazolo[3,4-c][1,2,4]triazepine] | 
12 | 99.9% | COc1cccnc1CN1N=C(c2ccc(Cl)cc2)c2c(sc(C)c2C)-n2c(C)nnc21 [Example 54, 4-(4-chlorophenyl)-6-((3-methoxypyridin-2-yl)methyl)-2,3,9-trimethyl-6H-thieno[2,3-e][1,2,4]triazolo[3,4-c][1,2,4]triazepine] | 
13 |  | Cc1nnc2n1-c1sccc1C(c1ccc(Cl)cc1)=NN2 [Example 59, 4-(4-chlorophenyl)-9-methyl-6H-thieno[2,3-e][1,2,4]triazolo[3,4-c][1,2,4]triazepine] | inhibition at 10 µM [1]: 100%
14 | 100% | Cc1nnc2n1-c1sccc1C(c1ccc(Cl)cc1)=NN2Cc1ccccn1 [Example 62, 4-(4-chlorophenyl)-9-methyl-6-(pyridin-2-ylmethyl)-6H-thieno[2,3-e][1,2,4]triazolo[3,4-c][1,2,4]triazepine] | 
15 | 100% | COc1ccc(CN2N=C(c3ccc(Cl)cc3)c3c(C)csc3-n3c(C)nnc32)cc1 [Example 66, 4-(4-chlorophenyl)-6-(4-methoxybenzyl)-3,9-dimethyl-6H-thieno[2,3-e][1,2,4]triazolo[3,4-c][1,2,4]triazepine] | 
16 | 100% | COc1ccc(CN2N=C(c3ccc(Cl)cc3)c3cccnc3-n3c(C)nnc32)cc1 [Example 67, 5-(4-chlorophenyl)-7-(4-methoxybenzyl)-10-methyl-7H-pyrido[2,3-e][1,2,4]triazolo[3,4-c][1,2,4]triazepine] | 
17 | 19.2% | COc1ccc(CN2N=C(c3ccc(Cl)cc3)c3c(sc(C)c3C)-n3c(CO)nnc32)cc1 [Example 68, (4-(4-chlorophenyl)-6-(4-methoxybenzyl)-2,3-dimethyl-6H-thieno[2,3-e][1,2,4]triazolo[3,4-c][1,2,4]triazepin-9-yl)methanol] | 
18 | 52% | COc1ccc(CN2N=C(c3ccc(Cl)cc3)c3c(sc(C)c3C)-n3c2nnc3C(F)(F)F)cc1 [Example 69, 4-(4-chlorophenyl)-6-(4-methoxybenzyl)-2,3-dimethyl-9-(trifluoromethyl)-6H-thieno[2,3-e][1,2,4]triazolo[3,4-c][1,2,4]triazepine] | 
19 | 100% | Cc1sc2c(c1C)C(c1ccccc1Cl)=NN(Cc1cccnc1)c1nnc(C)n1-2 [Example 72, 4-(2-chlorophenyl)-2,3,9-trimethyl-6-(pyridin-3-ylmethyl)-6H-thieno[2,3-e][1,2,4]triazolo[3,4-c][1,2,4]triazepine] | 
20 | 100% | COc1ccc(C2=NN(Cc3cccnc3)c3nnc(C)n3-c3sc(C)c(C)c32)cc1 [Example 76, 4-(4-methoxyphenyl)-2,3,9-trimethyl-6-(pyridin-3-ylmethyl)-6H-thieno[2,3-e][1,2,4]triazolo[3,4-c][1,2,4]triazepine] | 
21 | 100% | Cc1sc2c(c1C)C(c1ccc(Cl)cc1)=NN(Cc1cccnc1C(=O)O)c1nnc(C)n1-2 [Example 84, 3-((4-(4-chlorophenyl)-2,3,9-trimethyl-6H-thieno[2,3-e][1,2,4]triazolo[3,4-c][1,2,4]triazepin-6-yl)methyl)picolinic acid] | 
22 | 13.3% | CCNC(=O)c1ncccc1CN1N=C(c2ccc(Cl)cc2)c2c(sc(C)c2C)-n2c(C)nnc21 [Example 85, 3-((4-(4-chlorophenyl)-2,3,9-trimethyl-6H-thieno[2,3-e][1,2,4]triazolo[3,4-c][1,2,4]triazepin-6-yl)methyl)-N-ethylpicolinamide] | 
23 |  | Cc1sc2c(c1C)C(c1ccc(Cl)cc1)=NN(C(=O)Nc1ccccc1)c1nnc(C)n1-2 [Example 91, 4-(4-chlorophenyl)-2,3,9-trimethyl-N-phenyl-6H-thieno[2,3-e][1,2,4]triazolo[3,4-c][1,2,4]triazepine-6-carboxamide] | BRD4-H4KAc4 binding % of inhibition@10 uM ([1]; 10 uM): 22.4%
24 |  | CC(=O)Nc1ccc(C2=NN(Cc3cncc(O)c3)c3nnc(C)n3-c3sc(C)c(C)c32)cc1 [Example 99, N-(4-(6-((5-hydroxypyridin-3-yl)methyl)-2,3,9-trimethyl-6H-thieno[2,3-e][1,2,4]triazolo[3,4-c][1,2,4]triazepin-4-yl)phenyl)acetamide] | IC50 (NF-κB): 1640 nM
